Experimental findings from ChEMBL document CHEMBL1201862, “PubChem BioAssay data set” (2004) are described below.

The structures appear in SMILES notation. Calls of active or inactive are those of the source.

Usually EC50 stands for the concentration giving half of the maximal effect. Usually AC50 stands for the concentration giving half of the maximal activity seen. The term GI50 denotes the concentration giving 50% growth inhibition.

Test [1] concerns the target Voltage-dependent T-type calcium channel subunit alpha-1H (Homo sapiens, UniProt O95180). Format: functional.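 Note: channel activity triggered by adding a high calcium stimulation buffer.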
The next test relates to CHO. Put plainly: cytotoxicity in TLR9-MyD88 CHO cells, dose response, cytotoxicity control for TLR9-MyD88 binding inhibitor project, cell-based, luminescence (AID 588339).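 Note: CHO cells stably coexpressing TLR9 and MyD88 fusions from primary screen; compound exposure lasted 48 hours before viability readout.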 Format: functional, hamster. Particulars: Cricetulus griseus.
The target of the next test is Beta Lactamase (Pseudomonas aeruginosa, UniProt Q932Y6). Put plainly: beta-lactamase reporter inhibitor potency, dose response, artefact control for TLR9-MyD88 binding inhibitor project, BLA reporter cells, FRET fluorescence (AID 588341).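 Note: cell based assay in CHO-K1 cells stably expressing beta-lactamase.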 Format: cell-based.
For another test, the target named is T1, Protein skinhead-1 (Caenorhabditis elegans, UniProt P34707).
T1 sequence (P34707 whole entry): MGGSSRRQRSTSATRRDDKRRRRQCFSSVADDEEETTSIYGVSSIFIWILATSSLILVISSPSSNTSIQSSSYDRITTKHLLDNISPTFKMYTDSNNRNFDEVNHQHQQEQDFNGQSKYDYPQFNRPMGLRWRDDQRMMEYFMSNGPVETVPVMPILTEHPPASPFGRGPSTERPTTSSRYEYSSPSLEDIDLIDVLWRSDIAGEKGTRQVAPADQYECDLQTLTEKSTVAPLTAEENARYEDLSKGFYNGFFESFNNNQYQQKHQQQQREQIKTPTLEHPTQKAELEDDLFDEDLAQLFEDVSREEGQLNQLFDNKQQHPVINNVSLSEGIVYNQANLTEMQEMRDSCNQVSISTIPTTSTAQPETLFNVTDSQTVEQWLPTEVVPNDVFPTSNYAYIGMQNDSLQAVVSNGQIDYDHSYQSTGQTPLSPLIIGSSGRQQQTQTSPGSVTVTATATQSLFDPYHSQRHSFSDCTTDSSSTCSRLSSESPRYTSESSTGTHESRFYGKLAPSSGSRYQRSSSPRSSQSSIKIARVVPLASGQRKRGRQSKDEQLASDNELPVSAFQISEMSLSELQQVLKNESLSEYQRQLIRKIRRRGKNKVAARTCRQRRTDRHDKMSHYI
The format is functional.

Test [2] addresses T2, Low molecular weight phosphotyrosine protein phosphatase (Homo sapiens, UniProt P24666).
T2 sequence (P24666 whole entry): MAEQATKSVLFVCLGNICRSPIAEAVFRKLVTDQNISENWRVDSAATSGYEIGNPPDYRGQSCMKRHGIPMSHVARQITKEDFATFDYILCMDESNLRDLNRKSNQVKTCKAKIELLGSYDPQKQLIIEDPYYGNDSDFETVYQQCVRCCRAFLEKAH
The format is functional. Particulars: read-out: IC50_Mean.

In test [3] the target is T2, Low molecular weight phosphotyrosine protein phosphatase. The format is functional. Particulars: read-out: IC50_Mean. This is another data set of the same source.
Test [4] in a line: miR-122 activators in hepatoma reporter cells, dose response, cell-based, Huh7 psiCHECK-miR122, Renilla luciferase, cherry-picked (AID 651956).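 Note: huh7 hepatoma cells stably carrying a psiCHECK-2 miR-122 sensor plasmid; renilla luciferase signal reporting endogenous miR-122 activity after 48 h compound exposure.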 Format: functional.
For test [5], the target named is T3, Alkaline phosphatase, tissue-nonspecific isozyme (Homo sapiens, UniProt P05186).
T3 sequence (P05186 whole entry): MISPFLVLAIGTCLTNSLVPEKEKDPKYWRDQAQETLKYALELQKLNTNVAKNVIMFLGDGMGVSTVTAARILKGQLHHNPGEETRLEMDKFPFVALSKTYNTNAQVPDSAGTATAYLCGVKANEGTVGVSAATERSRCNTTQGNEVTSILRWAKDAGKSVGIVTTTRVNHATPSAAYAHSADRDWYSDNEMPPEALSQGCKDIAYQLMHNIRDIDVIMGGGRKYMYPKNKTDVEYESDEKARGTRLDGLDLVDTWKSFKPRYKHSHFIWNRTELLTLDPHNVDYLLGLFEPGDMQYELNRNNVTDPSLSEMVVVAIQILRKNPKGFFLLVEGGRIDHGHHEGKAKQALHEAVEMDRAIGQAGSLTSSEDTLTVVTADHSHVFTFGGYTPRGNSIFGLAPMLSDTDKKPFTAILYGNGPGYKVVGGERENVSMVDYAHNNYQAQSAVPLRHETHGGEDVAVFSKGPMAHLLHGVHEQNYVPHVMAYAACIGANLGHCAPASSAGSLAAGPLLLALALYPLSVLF
Put plainly: TNAP enzyme inhibition by screening hits, dose response, selectivity assay for mouse IAP inhibitor project, biochemical, human TNAP, uHTS hits (AID 488906). Format: functional.

Test [6] addresses Intestinal-type alkaline phosphatase (Mus musculus, UniProt P24822). Put plainly: PubChem AID 488785. The format is functional.
The next test concerns the target T4, Caspase-6 (Homo sapiens, UniProt P55212).
T4 sequence (P55212 whole entry): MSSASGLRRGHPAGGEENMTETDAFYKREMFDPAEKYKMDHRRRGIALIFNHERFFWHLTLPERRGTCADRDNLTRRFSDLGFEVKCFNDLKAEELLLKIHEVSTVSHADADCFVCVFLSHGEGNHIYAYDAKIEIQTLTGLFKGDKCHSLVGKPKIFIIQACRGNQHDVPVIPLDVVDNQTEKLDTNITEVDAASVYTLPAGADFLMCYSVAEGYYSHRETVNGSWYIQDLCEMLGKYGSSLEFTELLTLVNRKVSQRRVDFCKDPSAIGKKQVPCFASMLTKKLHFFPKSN
Put plainly: human caspase-6 inhibitors, dose response, biochemical, VEID-R110 fluorescence, cherry-pick (AID 720632).

Test [7] deals with DNA (cytosine-5)-methyltransferase 1 (Homo sapiens, UniProt P26358). Put plainly: DNMT1 methyltransferase inhibitors, confirmation, biochemical, fluorescent molecular beacon (AID 602386). The format is functional.
Sequence of DNA (cytosine-5)-methyltransferase 1 (P26358 whole entry): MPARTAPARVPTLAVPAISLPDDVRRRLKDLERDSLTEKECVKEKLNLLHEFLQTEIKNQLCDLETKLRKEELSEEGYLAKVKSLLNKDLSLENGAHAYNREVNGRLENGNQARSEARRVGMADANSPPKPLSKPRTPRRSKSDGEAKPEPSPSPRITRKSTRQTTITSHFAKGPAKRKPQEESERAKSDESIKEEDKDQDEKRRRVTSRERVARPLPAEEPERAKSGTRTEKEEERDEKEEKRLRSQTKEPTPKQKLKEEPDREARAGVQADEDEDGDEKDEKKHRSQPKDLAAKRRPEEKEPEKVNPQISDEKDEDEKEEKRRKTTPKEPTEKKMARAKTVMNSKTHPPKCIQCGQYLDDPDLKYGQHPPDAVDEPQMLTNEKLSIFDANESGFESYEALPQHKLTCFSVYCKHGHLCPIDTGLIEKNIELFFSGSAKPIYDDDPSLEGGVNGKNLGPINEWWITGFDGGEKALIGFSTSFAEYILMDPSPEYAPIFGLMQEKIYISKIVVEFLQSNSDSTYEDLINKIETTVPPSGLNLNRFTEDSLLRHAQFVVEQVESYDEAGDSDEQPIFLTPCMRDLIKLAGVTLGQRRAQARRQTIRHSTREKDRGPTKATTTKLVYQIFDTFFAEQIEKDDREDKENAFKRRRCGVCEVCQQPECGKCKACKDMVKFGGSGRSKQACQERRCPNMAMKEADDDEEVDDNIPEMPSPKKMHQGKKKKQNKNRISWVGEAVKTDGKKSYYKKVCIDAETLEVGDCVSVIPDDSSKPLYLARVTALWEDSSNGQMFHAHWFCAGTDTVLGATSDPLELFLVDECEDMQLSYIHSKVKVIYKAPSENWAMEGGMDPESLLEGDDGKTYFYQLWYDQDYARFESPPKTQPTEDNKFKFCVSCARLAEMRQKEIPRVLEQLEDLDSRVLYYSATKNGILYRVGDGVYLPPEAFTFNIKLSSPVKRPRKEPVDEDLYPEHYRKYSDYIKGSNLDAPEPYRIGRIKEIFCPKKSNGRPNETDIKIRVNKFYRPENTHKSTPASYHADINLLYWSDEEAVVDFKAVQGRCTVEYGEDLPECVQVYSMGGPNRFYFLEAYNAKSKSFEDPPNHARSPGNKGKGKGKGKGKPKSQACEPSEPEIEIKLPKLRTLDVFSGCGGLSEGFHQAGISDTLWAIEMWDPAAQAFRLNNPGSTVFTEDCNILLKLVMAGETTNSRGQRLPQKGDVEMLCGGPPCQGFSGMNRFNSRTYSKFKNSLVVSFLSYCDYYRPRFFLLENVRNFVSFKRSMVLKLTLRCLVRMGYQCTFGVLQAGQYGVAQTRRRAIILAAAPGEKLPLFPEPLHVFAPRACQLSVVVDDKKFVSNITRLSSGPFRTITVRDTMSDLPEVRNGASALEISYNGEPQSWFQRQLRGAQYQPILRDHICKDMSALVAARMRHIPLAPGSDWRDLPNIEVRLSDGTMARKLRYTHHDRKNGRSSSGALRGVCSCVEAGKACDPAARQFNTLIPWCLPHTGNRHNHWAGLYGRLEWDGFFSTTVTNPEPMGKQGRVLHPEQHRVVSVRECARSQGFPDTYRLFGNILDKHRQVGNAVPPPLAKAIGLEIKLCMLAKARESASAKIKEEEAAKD
Test [8] in a line: control 3'UTR Renilla luciferase suppression, dose response, counter-screen for Shn3 inhibitor project, cell-based, Clone20-Shn3RL, cherry-picked (AID 624133). Format: functional.
The target in test [9] is Intestinal-type alkaline phosphatase (Homo sapiens, UniProt P09923). Put plainly: inhibition of human intestinal alkaline phosphatase – biochemical, dose response (AID 488876). The format is functional.
For test [10], the target named is Mitochondrial peptide methionine sulfoxide reductase (Bos taurus, UniProt P54149). The format is functional.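 Note: absorbance read-out, biochemical high-throughput dose-response screen for MsrA inhibitors, confirmatory; recombinant bovine MsrA coupled to E. coli TrxB with NADPH and selenocystamine; potency is for inhibitors of MsrA activity on DMSO substrate.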
Sequence of Mitochondrial peptide methionine sulfoxide reductase (P54149 whole entry): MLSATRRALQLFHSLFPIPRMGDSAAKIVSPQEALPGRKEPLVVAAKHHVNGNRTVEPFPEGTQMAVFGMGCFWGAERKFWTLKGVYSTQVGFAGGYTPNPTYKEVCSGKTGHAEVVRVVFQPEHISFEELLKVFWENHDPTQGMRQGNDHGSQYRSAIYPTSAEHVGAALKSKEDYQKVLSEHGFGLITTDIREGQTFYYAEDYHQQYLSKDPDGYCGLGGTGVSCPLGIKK
Test [11] can be described thus: cytotoxicity toward NIH3T3 fibroblasts, dose response, counter-screen, cell-based, ATP luminescence, mouse fibroblasts (AID 2010).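 Note: cells exposed to compound for about 90 hours before reading.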 Format: functional. Background: Counterscreens check selectivity or assay interference.
The nature of test [12]: inhibitors of intracellular T. cruzi replication, confirmation, NIH3T3 host cells, beta-gal luminescence (AID 2044).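 Note: intracellular parasites grown in NIH/3T3 mouse fibroblasts as host cells; luminescent beta-galactosidase reporter signal from transgenic T. cruzi replicating inside host cells; inhibitors lower the luminescence signal.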 The format is functional, cell-based.
Another test concerns the target Melanocortin receptor 4 (Homo sapiens, UniProt P32245). Format: functional, cell-based.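 Note: Cell-based assay with luminescence read-out, confirmatory dose-response testing for agonist activity of biased ligands at MC4R; human U2OS cells with tagged receptor and beta-arrestin; potency of agonists that increase receptor coupling to beta-arrestin.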
In a further test the test system is Vero. Put plainly: West Nile virus antiviral activity, cell-based, CPE readout (AID 1621). The format is functional. The following applies: Chlorocebus sabaeus.
For test [13], the target named is Ras and Rab interactor 1/Tyrosine-protein kinase ABL1 (Homo sapiens, UniProt P00519+Q13671). Format: functional.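 Note: biochemical TR-FRET dose-response test measuring inhibition of binding between Rin1 and Abl proteins.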
Sequence of Ras and Rab interactor 1/Tyrosine-protein kinase ABL1 (P00519 whole entry): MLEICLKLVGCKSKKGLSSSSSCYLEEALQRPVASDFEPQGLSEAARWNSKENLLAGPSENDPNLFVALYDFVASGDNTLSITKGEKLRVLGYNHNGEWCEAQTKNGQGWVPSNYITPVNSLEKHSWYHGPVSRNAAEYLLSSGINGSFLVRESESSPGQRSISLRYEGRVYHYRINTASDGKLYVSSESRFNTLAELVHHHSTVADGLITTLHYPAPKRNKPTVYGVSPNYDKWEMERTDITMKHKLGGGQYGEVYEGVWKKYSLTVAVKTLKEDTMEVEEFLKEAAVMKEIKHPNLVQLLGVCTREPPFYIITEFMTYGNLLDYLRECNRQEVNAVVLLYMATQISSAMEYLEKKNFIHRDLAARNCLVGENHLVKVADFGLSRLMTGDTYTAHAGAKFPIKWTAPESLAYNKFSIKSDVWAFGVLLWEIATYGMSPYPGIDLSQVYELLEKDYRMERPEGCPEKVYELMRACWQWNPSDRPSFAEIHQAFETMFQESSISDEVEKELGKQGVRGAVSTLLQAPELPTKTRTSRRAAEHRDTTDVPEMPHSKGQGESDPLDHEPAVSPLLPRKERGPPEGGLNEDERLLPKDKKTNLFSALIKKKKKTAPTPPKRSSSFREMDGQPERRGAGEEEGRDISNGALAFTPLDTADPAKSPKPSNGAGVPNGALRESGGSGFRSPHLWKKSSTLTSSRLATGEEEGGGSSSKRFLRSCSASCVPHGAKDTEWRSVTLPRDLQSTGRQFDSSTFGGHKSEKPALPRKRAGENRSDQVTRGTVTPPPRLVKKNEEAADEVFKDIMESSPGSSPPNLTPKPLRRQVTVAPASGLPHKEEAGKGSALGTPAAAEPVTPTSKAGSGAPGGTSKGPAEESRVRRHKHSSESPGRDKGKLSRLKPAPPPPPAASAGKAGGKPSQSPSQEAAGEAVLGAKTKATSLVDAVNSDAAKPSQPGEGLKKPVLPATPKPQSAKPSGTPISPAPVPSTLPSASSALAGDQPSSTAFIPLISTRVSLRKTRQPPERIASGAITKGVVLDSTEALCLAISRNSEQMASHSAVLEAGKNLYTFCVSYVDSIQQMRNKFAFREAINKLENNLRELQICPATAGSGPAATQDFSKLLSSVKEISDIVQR
Sequence of Ras and Rab interactor 1/Tyrosine-protein kinase ABL1 (Q13671 whole entry): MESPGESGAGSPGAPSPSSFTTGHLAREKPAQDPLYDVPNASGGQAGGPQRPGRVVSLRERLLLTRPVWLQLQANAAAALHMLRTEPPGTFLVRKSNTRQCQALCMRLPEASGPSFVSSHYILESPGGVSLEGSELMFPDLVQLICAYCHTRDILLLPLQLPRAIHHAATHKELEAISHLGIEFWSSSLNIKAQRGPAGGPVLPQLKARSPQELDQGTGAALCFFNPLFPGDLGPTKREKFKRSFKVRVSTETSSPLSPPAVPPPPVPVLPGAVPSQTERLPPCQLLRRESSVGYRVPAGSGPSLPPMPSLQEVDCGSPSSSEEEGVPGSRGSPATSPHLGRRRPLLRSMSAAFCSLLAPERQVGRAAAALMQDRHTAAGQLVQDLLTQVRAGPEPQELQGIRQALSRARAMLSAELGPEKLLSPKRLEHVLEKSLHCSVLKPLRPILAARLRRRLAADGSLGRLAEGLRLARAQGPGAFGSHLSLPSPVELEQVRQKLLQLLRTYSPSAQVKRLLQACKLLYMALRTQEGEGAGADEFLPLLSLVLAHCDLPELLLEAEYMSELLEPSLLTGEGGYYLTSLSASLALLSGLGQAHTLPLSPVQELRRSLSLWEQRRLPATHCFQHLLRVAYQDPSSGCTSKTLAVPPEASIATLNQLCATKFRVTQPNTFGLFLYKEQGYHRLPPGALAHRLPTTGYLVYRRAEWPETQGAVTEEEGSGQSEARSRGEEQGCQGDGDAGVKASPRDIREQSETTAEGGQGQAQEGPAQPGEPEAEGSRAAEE
The target of test [14] is 26S proteasome non-ATPase regulatory subunit 14 (Homo sapiens, UniProt O00487). Put plainly: inhibition of proteasome subunit RPN11 – biochemical, fluorescence polarization, uHTS hits, confirmation (AID 602368). Format: functional.
Sequence of 26S proteasome non-ATPase regulatory subunit 14 (O00487 whole entry): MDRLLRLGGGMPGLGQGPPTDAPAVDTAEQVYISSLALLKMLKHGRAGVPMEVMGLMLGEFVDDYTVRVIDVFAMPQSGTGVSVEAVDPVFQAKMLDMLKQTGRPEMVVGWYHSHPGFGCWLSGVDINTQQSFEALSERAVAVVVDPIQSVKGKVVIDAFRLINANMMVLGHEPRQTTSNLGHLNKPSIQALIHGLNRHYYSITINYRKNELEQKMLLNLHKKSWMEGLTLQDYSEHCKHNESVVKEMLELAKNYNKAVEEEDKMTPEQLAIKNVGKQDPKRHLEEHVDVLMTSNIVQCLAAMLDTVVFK
In another test the target is Prothrombin (Bos taurus, UniProt P00735). Put plainly: thrombin inhibition, dose response, biochemical, fluorescence polarization, uHTS hits (AID 602369). Format: functional. In general terms: Polarisation of emitted light reports the rotation of a fluorescent probe.
In test [15] the target is 72 kDa type IV collagenase (Homo sapiens, UniProt P08253). Put plainly: Dose Response validation of uHTS RPN11 inhibitor hits using a MMP-2 Fluorescence assay. The format is functional.
Sequence of 72 kDa type IV collagenase (P08253 whole entry): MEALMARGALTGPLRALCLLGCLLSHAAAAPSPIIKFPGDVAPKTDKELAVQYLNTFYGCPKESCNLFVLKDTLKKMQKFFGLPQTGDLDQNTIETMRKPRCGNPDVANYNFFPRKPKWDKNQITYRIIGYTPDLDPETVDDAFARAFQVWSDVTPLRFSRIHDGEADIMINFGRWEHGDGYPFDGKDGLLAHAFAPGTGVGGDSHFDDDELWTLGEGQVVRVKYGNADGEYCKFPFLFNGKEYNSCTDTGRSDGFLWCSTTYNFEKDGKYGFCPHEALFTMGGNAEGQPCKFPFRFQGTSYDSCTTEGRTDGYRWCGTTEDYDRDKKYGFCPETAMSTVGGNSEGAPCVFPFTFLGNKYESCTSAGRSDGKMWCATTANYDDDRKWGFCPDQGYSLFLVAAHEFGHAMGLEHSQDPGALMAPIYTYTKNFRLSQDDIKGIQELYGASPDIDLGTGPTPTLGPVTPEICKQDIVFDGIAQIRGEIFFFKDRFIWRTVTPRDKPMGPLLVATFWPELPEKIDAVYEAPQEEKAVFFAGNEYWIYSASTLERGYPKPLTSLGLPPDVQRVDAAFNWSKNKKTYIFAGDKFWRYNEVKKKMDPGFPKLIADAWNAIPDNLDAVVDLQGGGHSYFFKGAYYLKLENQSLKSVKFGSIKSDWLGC
A further test addresses Cytochrome P450 3A4 (Homo sapiens, UniProt P08684).
In a further test the test system is P388/ADR. Put plainly: cells. Format: functional. The following applies: Mus musculus.
In the next test the test system is SN12K1. Put plainly: cells. Format: functional. The following applies: Homo sapiens.
Another test deals with P388. Put plainly: cells. Format: functional. The following applies: Mus musculus.
The target in test [16] is T5, Aryl hydrocarbon receptor (Homo sapiens, UniProt P35869).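 Note: confirmatory quantitative high-throughput screen measuring activation of the AhR signaling pathway.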
T5 sequence (P35869 whole entry): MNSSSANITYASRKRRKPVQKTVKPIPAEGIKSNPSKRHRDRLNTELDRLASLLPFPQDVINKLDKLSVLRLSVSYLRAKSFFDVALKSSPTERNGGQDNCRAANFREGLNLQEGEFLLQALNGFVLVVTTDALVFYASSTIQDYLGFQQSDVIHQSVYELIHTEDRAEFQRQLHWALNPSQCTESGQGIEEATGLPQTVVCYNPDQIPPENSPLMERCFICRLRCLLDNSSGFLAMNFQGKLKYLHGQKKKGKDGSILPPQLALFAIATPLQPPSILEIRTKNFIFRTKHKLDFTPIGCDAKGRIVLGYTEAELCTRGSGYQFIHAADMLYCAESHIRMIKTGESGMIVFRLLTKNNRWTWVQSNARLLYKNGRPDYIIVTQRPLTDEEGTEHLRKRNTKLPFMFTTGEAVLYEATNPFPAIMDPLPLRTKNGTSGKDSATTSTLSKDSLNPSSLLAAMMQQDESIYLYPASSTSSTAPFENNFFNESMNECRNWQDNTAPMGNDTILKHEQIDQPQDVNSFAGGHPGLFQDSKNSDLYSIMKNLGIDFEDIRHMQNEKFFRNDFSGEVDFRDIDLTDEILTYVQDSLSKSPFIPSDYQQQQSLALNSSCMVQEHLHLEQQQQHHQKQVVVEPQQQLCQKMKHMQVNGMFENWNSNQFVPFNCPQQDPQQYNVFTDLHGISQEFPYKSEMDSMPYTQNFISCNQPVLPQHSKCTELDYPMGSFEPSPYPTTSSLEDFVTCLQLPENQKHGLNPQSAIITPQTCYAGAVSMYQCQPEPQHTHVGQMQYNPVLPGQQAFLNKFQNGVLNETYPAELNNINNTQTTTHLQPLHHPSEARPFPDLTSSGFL
The following applies: Potency.

Sequence of Melanocortin receptor 4 (P32245 whole entry): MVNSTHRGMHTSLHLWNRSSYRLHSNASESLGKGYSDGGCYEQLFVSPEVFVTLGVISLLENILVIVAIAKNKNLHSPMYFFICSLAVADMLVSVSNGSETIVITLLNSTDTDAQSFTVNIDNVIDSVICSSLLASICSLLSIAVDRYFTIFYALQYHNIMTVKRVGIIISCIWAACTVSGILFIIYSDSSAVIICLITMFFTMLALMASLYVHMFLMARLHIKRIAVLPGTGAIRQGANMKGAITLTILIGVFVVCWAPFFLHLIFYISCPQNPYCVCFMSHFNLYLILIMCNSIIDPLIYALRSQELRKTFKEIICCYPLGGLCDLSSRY

Consider `CCCN1C(=O)/C(=C/c2ccc(N3CCCC3)c(C)c2)NC1=S`, for which the concentration giving a half-maximal response (EC50) in test [1] was 3.84 µM (active). The results for the IC50 in the test with CHO, at Beta Lactamase and on Protein skinhead-1 were 32.1 µM (inactive), 6.66 µM (active) and > 100 µM (inactive), respectively.

Consider `Clc1cccc(Cl)c1Cn1cnc(NCc2ccco2)c2ncnc1-2`, for which the IC50 is 4.06 µM (active) in [2] and 9.54 µM (active) in test [3].

In the case of `CC(=O)Nc1ccc(S(=O)(=O)Nc2ccc(S(=O)(=O)Nc3nc(C)cc(C)n3)cc2)cc1`, in [4], the AC50 is 19.7 µM (active).

On to `COc1ccc(C(=O)OCC(=O)Nc2ncc([N+](=O)[O-])s2)cc1OC`, for which the IC50 in test [5] is 23.7 µM (active); in test [6], 8.79 µM (active); in test [7], 4.45 µM (active); in [9], 72.6 µM (active). In addition, the values for the half-maximal activity concentration (AC50) (on Caspase-6; in test [8]) were 4.75 µM (active) and 20.8 µM (active), respectively.

For the compound `S=C1NC2(CCCC2)Nc2ccccc21`, in [10], the IC50 is 53.6 µM (inactive).

On to `CCN1CCN(CCNC(=O)c2ccc(/C=C3\Sc4ccccc4N(Cc4ccccc4F)C3=O)cc2)CC1`, for which the EC50 is > 60 µM (not active) in test [11], 2.03 µM (active) in test [12] and > 89.2 µM (inactive) on Melanocortin receptor 4. Also, in the test on Vero, the IC50 is 22.8 µM (active).

As for `CCOc1ccc2nc(N(CCN(C)C)C(=O)c3cc4ccccc4cc3OC)sc2c1`, the IC50 in [13] is 52 µM (inactive); on Protein skinhead-1, > 100 µM (inactive).

In the case of `COc1cc(/C=C(\C#N)C(=O)Nc2cc(C(F)(F)F)ccc2Cl)ccc1OCC(=O)Nc1cccc(C(F)(F)F)c1`, the IC50 in test [14] is 32.5 µM (active); on Prothrombin, 40.2 µM (active); in test [15], > 100 µM (inactive).

On to `COc1cc(C(=O)Nc2ccc(S(=O)(=O)N3CCCCC3C)cc2)cc(OC)c1OC` (centres undefined), for which the AC50 in test [4] is 19.8 µM (active).

As to `CN(Cc1ccccc1)C(=O)c1ccc(NC(=O)Cc2ccc(NC(=O)C3CCN(C(=O)C4CCCC4)CC3)cc2)cc1`, the IC50 in [13] is 20.7 µM (inactive).

Take `CCCC/N=c1\scc(-c2ccc3c(c2)NC(=O)CO3)n1N=C1CCCC1`: the results for the IC50 (in [14]; at Prothrombin; in test [15]) were 26.6 µM (active), 27.7 µM (active) and > 100 µM (inactive), respectively.

In the case of `CCOc1ccc(C(=O)N/N=C/c2cc(Cl)ccc2[N+](=O)[O-])cc1`, the values for the IC50 (in [14]; on Prothrombin; in test [15]) were 19.3 µM (active), 59.3 µM (active) and > 100 µM (inactive), respectively.

On to `O=C(N/N=C/c1ccc(OCc2ccccc2)cc1)c1cccs1`, for which, on Melanocortin receptor 4, the EC50 is > 89.2 µM (inactive). Besides, at Cytochrome P450 3A4, the AC50 is 39.8 µM (inconclusive).

As to `CC1OC(O[C@@H]2C=C3CC[C@@H]4[C@H](CC[C@]5(C)[C@@H](c6ccc(=O)oc6)CC[C@]45O)[C@@]3(C)CC2)C(O)C(OC2OC(CO)C(O)C(O)C2O)C1O` (some centres undefined), the results for the GI50 in the test with P388/ADR, in the test on SN12K1 and with P388 were 51.3 µM (inactive), 0.025 µM (active) and 45.3 µM (inactive), respectively.

As to `CN(/N=C/C=C/c1ccccc1)c1cc(=O)n(C)c(=O)[nH]1`, in test [10], the IC50 was 155 µM (inactive).

With `CON=C(C(=O)OC)c1ccccc1CO/N=C(\C)c1cccc(C(F)(F)F)c1`, the AC50 in [16] was 63.1 µM (inconclusive).

For the compound `Cc1ccc(/N=C/N(C)/C=N/c2ccc(C)cc2C)c(C)c1` [AMITRAZ], the AC50 in [16] was 50.1 µM (inconclusive).
